According to publication PMC6828813, “Biochemical characterisation of four rhamnosidases from thermophilic bacteria of the genera Thermotoga, Caldicellulosiruptor and Thermoclostridium” (Scientific Reports, 2019):

Assays:
Cb_Ram106B [1] = molecular target: T1, Cb_Ram106B (Caldicellulosiruptor bescii, UniProt B9MP87); experiment: pNP release, absorbance at […] nm, Hill fit; format: biochemical; conditions: Kprime = Khalf^h, Hill coefficient h = 1.64 ± 0.20; 1 mM CoCl2, 100 mM MOPS pH 7 (RT), 70 °C
T1 construct: gene Athe_2581

Tn_Ram106B [2] = molecular target: T2, Tn_Ram106B (Thermotoga neapolitana, UniProt B9K9N8); experiment: product inhibition of pNPR hydrolysis, pNP absorbance at […] nm; format: biochemical; conditions: read-out: IC50 (at Km or Kprime)
T2 construct: gene CTN_1495

Tm_Ram106B [3] = molecular target: T3, Tm_Ram106B (Thermotoga maritima, UniProt Q9X0G3); experiment: as above; format: biochemical; conditions: read-out: Ki^b, α^b (mM rhamnose)
T3 construct: gene TM_1074

Cb_Ram106B [4] = molecular target: T1, Cb_Ram106B; experiment: as above; format: biochemical; conditions: read-out: IC50 (at Km or Kprime)
Ts_Ram106B [5] = molecular target: T4, Ts_Ram106B (Thermoclostridium stercorarium, UniProt L7VK28); experiment: as above; format: biochemical; conditions: read-out: IC50 (at Km or Kprime)
T4 construct: gene Cst_c00400

Tm_Ram106B [6] = molecular target: T3, Tm_Ram106B; experiment: as above; format: biochemical; conditions: read-out: IC50 (at Km or Kprime)
Tn_Ram106B [7] = molecular target: T2, Tn_Ram106B; experiment: as above; format: biochemical; conditions: read-out: Ki^b, α^b (mM rhamnose)
Ts_Ram106B [8] = molecular target: T4, Ts_Ram106B; experiment: as above; format: biochemical; conditions: read-out: Ki^b, α^b (mM rhamnose)
purified protein [9] = substrate: C[C@@H]1O[C@@H](Oc2ccc([N+](=O)[O-])cc2)[C@H](O)[C@H](O)[C@H]1O; experiment: purified protein; format: biochemical, Thermotoga maritima; conditions: 1 mM CoCl2, 100 mM MOPS pH 7 (RT), 80 °C
purified protein [10] = substrate: C[C@@H]1O[C@@H](Oc2ccc([N+](=O)[O-])cc2)[C@H](O)[C@H](O)[C@H]1O; experiment: purified protein; format: biochemical, Thermotoga neapolitana; conditions: 1 mM CoCl2, 100 mM MOPS pH 7 (RT), 80 °C
purified protein [11] = substrate: C[C@@H]1O[C@@H](Oc2ccc([N+](=O)[O-])cc2)[C@H](O)[C@H](O)[C@H]1O; experiment: purified protein; format: biochemical, Thermoclostridium stercorarium; conditions: 1 mM CoCl2, 100 mM MOPS pH 7 (RT), 55 °C

T1 sequence (B9MP87 entry or part of it): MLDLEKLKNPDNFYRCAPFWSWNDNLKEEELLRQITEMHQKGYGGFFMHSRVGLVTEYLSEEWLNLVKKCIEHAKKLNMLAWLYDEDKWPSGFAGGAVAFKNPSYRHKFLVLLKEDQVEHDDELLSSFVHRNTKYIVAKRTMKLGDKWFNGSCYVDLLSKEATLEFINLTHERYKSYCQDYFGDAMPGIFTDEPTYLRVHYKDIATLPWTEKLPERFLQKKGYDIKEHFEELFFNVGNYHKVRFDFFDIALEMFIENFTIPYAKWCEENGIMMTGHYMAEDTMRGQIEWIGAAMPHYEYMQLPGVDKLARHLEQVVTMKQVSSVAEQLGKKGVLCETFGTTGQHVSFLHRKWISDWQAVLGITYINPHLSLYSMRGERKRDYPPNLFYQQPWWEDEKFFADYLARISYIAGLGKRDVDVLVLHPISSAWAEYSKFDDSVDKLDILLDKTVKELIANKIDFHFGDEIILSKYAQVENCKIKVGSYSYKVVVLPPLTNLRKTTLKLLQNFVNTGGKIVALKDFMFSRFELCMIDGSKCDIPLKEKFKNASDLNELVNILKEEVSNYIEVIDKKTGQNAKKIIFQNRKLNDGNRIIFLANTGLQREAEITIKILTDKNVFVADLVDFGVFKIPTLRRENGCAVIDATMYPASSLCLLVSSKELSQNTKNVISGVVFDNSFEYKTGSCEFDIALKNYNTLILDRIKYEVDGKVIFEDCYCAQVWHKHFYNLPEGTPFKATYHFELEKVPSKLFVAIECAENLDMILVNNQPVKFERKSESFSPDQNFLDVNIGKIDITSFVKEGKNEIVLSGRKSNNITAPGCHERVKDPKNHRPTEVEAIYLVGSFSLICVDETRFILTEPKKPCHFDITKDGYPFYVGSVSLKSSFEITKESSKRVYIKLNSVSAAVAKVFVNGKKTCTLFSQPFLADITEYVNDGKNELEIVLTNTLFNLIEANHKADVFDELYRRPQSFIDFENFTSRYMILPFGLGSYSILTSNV

C[C@@H]1O[C@@H](Oc2ccc([N+](=O)[O-])cc2)[C@H](O)[C@H](O)[C@H]1O [pNPR, para-nitrophenyl-α-L-rhamnopyranoside]
Km or Kprime, h^b,c (Cb_Ram106B [1]): 1.29 ± 0.23 mM

C[C@@H]1O[C@@H](O)[C@H](O)[C@H](O)[C@H]1O [rhamnose]
IC50 (Tn_Ram106B [2]): 6.5 mM | Ki (Tm_Ram106B [3]): 2.37 ± 0.13 mM | IC50 (Cb_Ram106B [4]): 5.5 mM | IC50 (Ts_Ram106B [5]): 8.3 mM | IC50 (Tm_Ram106B [6]): 4.9 mM | Ki (Tn_Ram106B [7]): 5.5 ± 1.01 mM | Ki (Ts_Ram106B [8]): 4.94 ± 0.75 mM

B1: Tm_Ram106B (Thermotoga maritima MSB8) (protein)
chain: MNLKDLENPGVWYRPAPFWSWNDKLCEEELLRQIDEMYEKGYGGFFMHSRVGLVTEYLSEEWMRLVRSCAEHARKLGMLAWLYDEDKWPSGFAGGIVPLEKPEHRHKYLTLLKKDQIKPEDEILKKIERDGEEFYVVKRVMKLGDPWFNGTCYVDLLSRETTEAFLRSTHERYKKSCGDLFRVSIPGIFTDEPTYLRVHHPKETTLPWTERFPEEFLRRKGYDIRDHLEELFFNVKDYMKVRYDFFDVATSLFIENFTIPYAKWCEENGIFMTGHYMAEDTLRGQVEWIGAAMPHYEYMQIPGIDKLARHLEQVVTIKQVSSAAEQLGKKWVLCETFGTTGQHVSFLHRKWIADWQAVLGVTYINPHLSLYSMRGERKRDYPPNLFYQQPWWKNERFLSDYFARLNHIVTQGKREVKVLMIHPISSAWCVYSKFDDEIDKLNELFDTITKELVANKIDFHFGDEMILSKHGRVKEAKLRVGEYEYEVVVLPPLLNLKSSTVELLNSLAENGGKVFVLKDFRYGRFFPERVEGKKGRIEFLKKARVFETLEDLIEELKPFFSVDVLDTKTKENAKAVIAQKRVLEDGSYLLFLANTDIDREVHCHLELKEKRKHTYAIDLFNFKLVELKENEFVMFPASSVCIWVTDEEVPAEDEKVVSTGVLLEKEFDFETALNDFEVKMNSFNVLPVDRVEYFEAGGRVFRNEFVSKIWYEFYRLPDGTPFRVEYSFEVRKKPQKLFLVVECAENLDRITVNGREVRYERKSCIFNEEQNFLDVNFGKMEITDLVREGKNTVVLEGRKENNITGPGCHTRVKDPENHRPTEVETIYLVGDFSLVNVDETRYVIDAPKIPDHRDITRDGYPFYVGSFTLKKIFECKKDPGKRYFLKLNGVEAASVEVILNGKFLGVLFWRPFMIDITDALRNGKNELQLVLTNTLFNLIEANHKADVLEETFRRPKSFIDFEHHTDRYILLPFGLENVAVLSSSSR
K0.5 (purified protein [9]): 1.94 ± 0.20 mM | kcat (purified protein [9]): 217.8 ± 10.1 s⁻¹

B2: Tn_Ram106B (Thermotoga neapolitana DSM 4359) (protein)
chain: MNLKDLENPGVWYRPAPFWSWNDKLCEEELLRQIDEMCEKGYGGFFMHSRVGLVTEYLSDEWMALVKRCAEHARKLGMLAWLYDEDKWPSGFAGGIVPLESDEYRHRFLVLLKKEQIEPGDEILKRIERGNEELFVVKRTMKLGDPWFNGTCYVDLLSKKVTEAFIRSTHEKYRKVCGEFFGSSIPGIFTDEPTYLRVHYPEIPTLPWTDRFPEEFLKRKGYDIREHFEELFFNTKDYMKVRYDFFDVATELFIENFTIPYAKWCEENGISMTGHYMAEDTLRGQVEWIGAAMPHYEYMQIPGVDKLARHLEQVITIKQVSSVAEQLRKKWVLCETFGTTGQHVSFLHRKWIADWQAVLGITYINPHLSLYSMRGERKRDYPPNLFYQQPWWKNEKRFSDYLARLNYLMTQGKREVKVLMIHPITSAWCVYSKFDDEIDKLNESFDRTVKELVSNKIDFHFGDETILSKHGRVSGEKLVVGNCEYDIVLVPPLLNLRRSTVDLLNEFSKNGGKILVLKDGNFFPERVEGRKEKPEFLKRARVFEDLQGLIDSLRDVAAVEVIDKKTGKNAKSVIAQKRLLENGSYIIFLANTDINREVHCQLNLKEEKRHIYAIDIFDFAVVEFSEREFTMHPASSLLIWVTDEEIPSQRRSVISTGVTLKREFELEMAFSEFETEMNGFNVLPVDRVDMFEADGKVFRDEYVSKIWYEFYRLPEGTPFGVVYSFEIREKPEKLFLVVECAENLDRITVNGHEAVFKKKGCTFTEEECFLDVNFGKMDITELVQVGKNIVVLEGKKSNNITGPGCHERVKNPENHRPTEVETIYLVGKFSLVNVDETKYVIDAPKTPDHKDITRSGYPFYVGSFTLRKTFEMKKDPKRRYFLKLNSVRAASVEVFLNEKFVGSLFWEPFMVEITDNLHDGKNELKLVLTNTLFNLIEANHKADVLEETFRRPWSFIDFEHHTDRYILLPFGLENAAVLSSFSP
K0.5 (purified protein [10]): 1.47 ± 0.14 mM | kcat (purified protein [10]): 146.8 ± 6.1 s⁻¹

B3: Ts_Ram106B (Thermoclostridium stercorarium subsp. stercorarium DSM 8532) (protein)
chain: MFFKNSREEFDESLFRNPTSEYRCAPFWAWNKKLDWEDMERHIEIFKEMGMGGFHIHSRIGLNTPYLSDEFLDYVKKCNAKAKELGMLTWLYDEDKWPSGFGGGFVTKDHNFRSRYLLFSPFYHQSGYYERHIPRENRLGIDGYLSLIAEYKVVLKNGYLSSYKRIESGDNDSAEGETWYAYRVISGDLPWFNNQAYVDTLNKKAVEKFIEVTHEKYFEILGGEFSKSVPAVFTDEPQFVLKQNLPEPDSRQEVGIPYTDLFEESFRQRFGCSFLDSLPEIFWELEGGKFSRIRYWYHEHIAELFASSFADTVGRWCREHNLMLTGHMMAESTLESQTRALGEAMRSYRSFDLPGVDILANKYEYSTVKQAQSVARQFGKAGVLSELYGVTNWDFDFRGHKLQGDWQAAMGVSVRVPHLSWLGMGGESKRDYPAPVDYHSPWYKKYHIIEDHFSRVNVCMTRGVPCVNIAVIHPIESYWLLWGPDSQTKQKRLKLQQEFESIIDWLLFSNLDFDFIAESMVKELYRGSGNRHTQFGDMKYEVLIVPELITIRSETVKMLINHLENGGKVIILGNLPKIIDGDSDRKFDIECLGECVINNSKYDLLDALEPFRQIDIVNRDSSRNENYLYQLRDEAECKWLFIAPGKPVEALKLPEEKVLTVKVRGSYEVWRYDTFTGEKQKIQARGKDGWTYFEQTAYEHDSFLYRLLKTGTNDTTEKSVSSGVGRQVNKGVKYIKYLNGPWEYRLSEKNVLLLDMARYSLDNGEISEREEVLRIDDKIRTKLGYPLRTDSFPQPWLSPAEAECPHTVKLYFEIESETDVHEAELAFEGKGVTAEWNNVAVTDRADGFFIDKCFNVMKLPGIKKGVNQLVLTVPFGEKTDLEWCFITGNFGTCVKGDKVIITNPPERLFFGDVTRQGLSFYGGNITYIVNIDVPEGEMTVEIPQYRGALVEVALDNAKKGDIIFSPYRLNLGYVSQGEHTIEITLYGNRFNMFGQLHNCNRVEKYYGPNTWRTKGNAFAYEYQLREFGIIAAPLIYIE
K0.5 (purified protein [11]): 1.90 ± 0.18 mM | kcat (purified protein [11]): 14.3 ± 0.5 s⁻¹
